Entries after “also recorded” stand apart in the source; their conditions may differ. Like-named read-outs stand apart in the source and are kept apart here.
Tested on: patients with advanced solid tumors
[1] = 85 mg BID 14d-on/14d-off (N = 12)
[2] = all 50 patients, none related to GFH018

Experimental: The study consisted of a dose-escalation part followed by an expansion part. In the dose escalation part, a 3-day pharmacokinetic (PK) lead-in period was conducted for a single dose in the first treatment cycle. Patients received GFH018 once on cycle 1 day 1 (C1D1) and underwent serial PK testing over the first 3 days. On C1D4, patients were administered the corresponding dose of GFH018 BID 14 days on/14 days off. The first cycle was defined as 31 days, including 3-day PK leading-in period with GFH018 single dosing and then 14d-on/14d-off dosing schedule. The subsequent cycles were 28 days. The starting dose of GFH018 was 5 mg, with eight planned dose levels up to 85 mg (5, 10, 20, 30, 40, 50, 65, and 85 mg). A modified 3+3 design was used to determine the maximum tolerance dose (MTD) and RDE, guided by safety/tolerability and PK data. Dose-limiting toxicities (DLTs) were evaluated during the first cycle at each dose level. The safety of 85 mg BID, 7 d-on/7 d-off, was explored after confirming the safety of 14 d-on/14 d-off. The DLTs were defined as hematological toxicities, including G4 neutropenia lasting for more than 5 days, G3 febrile neutropenia, G4 anemia, G4 thrombocytopenia, or G3 thrombocytopenia accompanied by bleeding, and ≥ G3 nonhematological toxicity (except for diarrhea, nausea, vomiting, and rash recovering ≤ G2 after supportive treatment within 3 days). The DLTs for cardiac toxicities included ≥ G2 cardiac valve abnormalities, ≥ G2 left ventricular ejection fraction (LVEF) decrease, any cardiovascular impairment shown in imaging, and abnormal highly sensitive troponin (hs-Tn) increased to ≥ twice the baseline in two consecutive tests with an interval ≥ 3 days. In the expansion part, patients were orally administered GFH018 RDE twice daily to further evaluate the safety of RDE and other dose regimens. […] The treatment cycle lasted 28 days.
All enrolled patients were monitored regularly after GFH018 administration. Safety assessments included adverse events (AEs), serious AEs (SAEs), laboratory assessments, vital signs, physical examinations, electrocardiography and echocardiography. AEs were graded according to the NCI Common Terminology Criteria for Adverse Events (NCI-CTCAE) v5.0. All AEs were followed up until they were stable or had recovered to baseline. Adverse events of special interest (AESIs) were predefined as echocardiographic abnormalities such as aggravated stenosis or regurgitation of the heart valves, clinically significant decreases in LVEF, brain natriuretic peptide (BNP) or N-terminal pro-brain natriuretic peptide (NT-proBNP) increases, and hs-Tn increases judged by investigators.
For the safety and efficacy analyses, data from patients who received GFH018 at the same dose in the dose-escalation and expansion cohorts were pooled. The demographic and baseline characteristics were summarized using descriptive methods. Safety and efficacy data were summarized for all patients who received at least one dose of GFH018. The ORR and DCR were summarized by cohort and overall. When the sample size of the analyzed group was ten or more, the Kaplan–Meier method was used to estimate the median PFS and TTP. In this study, treatment-emergent AEs (TEAEs) were defined as AEs that occurred on or after the first dosing date of GFH018 and no later than 30 days after the last dose of GFH018. The incidence and severity of AEs were descriptively summarized according to dose level. The PK parameters of GFH018 were calculated using noncompartmental analysis methods. All plasma PK data were summarized by cohort and visit day or time using descriptive statistics.

Cc1cccc(-c2nn3c(c2-c2ccc4ncnn4c2/C=C/C(N)=O)CCC3)n1 [GFH018]
TEAE: White blood cell count decreased [1]: 2 (16.7%) n (%) | TEAE: White blood cells urine positive [1]: 3 (25.0%) n (%) | TEAE: White blood cells urine positive, any grade (Table S3) [1]: 3 (25.0%) n (%) | TEAE: White blood cells urine positive, maximal CTCAE grade G1 [1]: 3 (25.0%) n (%) | TEAE: White blood cells urine positive, maximal CTCAE grade G2 [1]: 0 n (%) | TEAE: White blood cells urine positive, maximal CTCAE grade G3 [1]: 0 n (%) | TEAE: White blood cells urine positive, maximal CTCAE grade G4 [1]: 0 n (%) | TEAE: White blood cells urine positive, maximal CTCAE grade G5 [1]: 0 n (%) | TRAE: ALP increased [1]: 1 (8.3%) n (%) | TRAE: ALT increased [1]: 2 (16.7%) n (%) | TRAE: AST increased [1]: 4 (33.3%) n (%) | TRAE: Anemia [1]: 3 (25.0%) n (%) | TRAE: GGT increased [1]: 2 (16.7%) n (%) | TRAE: LDH increased [1]: 2 (16.7%) n (%) | TRAE: Lymphocyte count decreased [1]: 2 (16.7%) n (%) | TRAE: Protein urine present [1]: 1 (8.3%) n (%) | TRAE: Proteinuria [1]: 1 (8.3%) n (%) | Treatment-emergent Proteinuria (grouped PTs), G1 [1]: 1 (8.3) n (%) | Treatment-emergent Proteinuria (grouped PTs), G2 [1]: 1 (8.3) n (%) | Treatment-emergent Proteinuria (grouped PTs), G3 [1]: 1 (8.3) n (%) | Treatment-emergent Proteinuria (grouped PTs: proteinuria and urine protein present), any grade [1]: 3 (25.0) n (%) | correlation between incidences of TRAEs and dosages (5–85 mg BID): no obvious correlation | dose-limiting toxicities (DLTs) (5–85 mg BID, evaluated during the first cycle): No dose-limiting toxicity occurred; also recorded: no DLTs were observed at any dose level; also recorded: without any DLTs | skin toxicity (GFH018 as a single agent): No special concerns related to skin toxicity were raised | At least one TEAE (Total (N = 50)): 48 (96.0%) n (%) | At least one TEAE (Table S3) (Total (N = 50)): 48 (96.0%) n (%) | At least one TRAE (Total (N = 50)): 43 (86.0%) n (%) | TEAE: ALP increased (Total (N = 50)): 8 (16.0%) n (%) | TEAE: ALT increased (Total (N = 50)): 8 (16.0%) n (%) | TEAE: ALT increased, any grade (Table S3) (Total (N = 50)): 8 (16.0%) n (%) | TEAE: ALT increased, maximal CTCAE grade G1 (Total (N = 50)): 8 (16.0%) n (%) | TEAE: ALT increased, maximal CTCAE grade G2 (Total (N = 50)): 0 n (%) | TEAE: ALT increased, maximal CTCAE grade G3 (Total (N = 50)): 0 n (%) | TEAE: ALT increased, maximal CTCAE grade G4 (Total (N = 50)): 0 n (%) | TEAE: ALT increased, maximal CTCAE grade G5 (Total (N = 50)): 0 n (%) | TEAE: AST increased (Total (N = 50)): 11 (22.0%) n (%) | TEAE: AST increased, any grade (Table S3) (Total (N = 50)): 11 (22.0%) n (%) | TEAE: AST increased, maximal CTCAE grade G1 (Total (N = 50)): 10 (20.0%) n (%) | TEAE: AST increased, maximal CTCAE grade G2 (Total (N = 50)): 1 (2.0%) n (%) | TEAE: AST increased, maximal CTCAE grade G3 (Total (N = 50)): 0 n (%) | TEAE: AST increased, maximal CTCAE grade G4 (Total (N = 50)): 0 n (%) | TEAE: AST increased, maximal CTCAE grade G5 (Total (N = 50)): 0 n (%) | TEAE: Abdominal distention (Total (N = 50)): 7 (14.0%) n (%) | TEAE: Abdominal pain (Total (N = 50)): 9 (18.0%) n (%) | TEAE: Anemia (Total (N = 50)): 17 (34.0%) n (%) | TEAE: Asthenia (Total (N = 50)): 9 (18.0%) n (%) | TEAE: Bilirubin conjugated increased (Total (N = 50)): 8 (16.0%) n (%) | TEAE: Blood albumin decreased (Total (N = 50)): 6 (12.0%) n (%) | TEAE: Blood bilirubin increased (Total (N = 50)): 5 (10.0%) n (%) | TEAE: C-reactive protein increased (Total (N = 50)): 5 (10.0%) n (%) | TEAE: C-reactive protein increased, any grade (Table S3) (Total (N = 50)): 5 (10.0%) n (%) | TEAE: C-reactive protein increased, maximal CTCAE grade G1 (Total (N = 50)): 5 (10.0%) n (%) | TEAE: C-reactive protein increased, maximal CTCAE grade G2 (Total (N = 50)): 0 n (%) | TEAE: C-reactive protein increased, maximal CTCAE grade G3 (Total (N = 50)): 0 n (%) | TEAE: C-reactive protein increased, maximal CTCAE grade G4 (Total (N = 50)): 0 n (%) | TEAE: C-reactive protein increased, maximal CTCAE grade G5 (Total (N = 50)): 0 n (%) | TEAE: Constipation (Total (N = 50)): 8 (16.0%) n (%) | TEAE: Decreased appetite (Total (N = 50)): 6 (12.0%) n (%) | TEAE: Decreased appetite, any grade (Table S3) (Total (N = 50)): 6 (12.0%) n (%) | TEAE: Decreased appetite, maximal CTCAE grade G1 (Total (N = 50)): 4 (8.0%) n (%) | TEAE: Decreased appetite, maximal CTCAE grade G2 (Total (N = 50)): 2 (4.0%) n (%) | TEAE: Decreased appetite, maximal CTCAE grade G3 (Total (N = 50)): 0 n (%) | TEAE: Decreased appetite, maximal CTCAE grade G4 (Total (N = 50)): 0 n (%) | TEAE: Decreased appetite, maximal CTCAE grade G5 (Total (N = 50)): 0 n (%) | TEAE: GGT increased (Total (N = 50)): 10 (20.0%) n (%) | TEAE: GGT increased, any grade (Table S3) (Total (N = 50)): 10 (20.0%) n (%) | TEAE: GGT increased, maximal CTCAE grade G1 (Total (N = 50)): 8 (16.0%) n (%) | TEAE: GGT increased, maximal CTCAE grade G2 (Total (N = 50)): 2 (4.0%) n (%) | TEAE: GGT increased, maximal CTCAE grade G3 (Total (N = 50)): 0 n (%) | TEAE: GGT increased, maximal CTCAE grade G4 (Total (N = 50)): 0 n (%) | TEAE: GGT increased, maximal CTCAE grade G5 (Total (N = 50)): 0 n (%) | TEAE: Hypoalbuminemia (Total (N = 50)): 7 (14.0%) n (%) | TEAE: LDH increased (Total (N = 50)): 8 (16.0%) n (%) | TEAE: LDH increased, any grade (Table S3) (Total (N = 50)): 8 (16.0%) n (%) | TEAE: LDH increased, maximal CTCAE grade G1 (Total (N = 50)): 8 (16.0%) n (%) | TEAE: LDH increased, maximal CTCAE grade G2 (Total (N = 50)): 0 n (%) | TEAE: LDH increased, maximal CTCAE grade G3 (Total (N = 50)): 0 n (%) | TEAE: LDH increased, maximal CTCAE grade G4 (Total (N = 50)): 0 n (%) | TEAE: LDH increased, maximal CTCAE grade G5 (Total (N = 50)): 0 n (%) | TEAE: Lymphocyte count decreased (Total (N = 50)): 12 (24.0%) n (%) | TEAE: Platelet count decreased (Total (N = 50)): 6 (12.0%) n (%) | TEAE: Proteinuria (Total (N = 50)): 11 (22.0%) n (%) | TEAE: Sinus tachycardia (Total (N = 50)): 10 (20.0%) n (%) | TEAE: Urine protein present (Total (N = 50)): 10 (20.0%) n (%) | TEAE: White blood cell count decreased (Total (N = 50)): 7 (14.0%) n (%) | TEAE: White blood cells urine positive (Total (N = 50)): 5 (10.0%) n (%) | TEAE: White blood cells urine positive, any grade (Table S3) (Total (N = 50)): 5 (10.0%) n (%) | TEAE: White blood cells urine positive, maximal CTCAE grade G1 (Total (N = 50)): 5 (10.0%) n (%) | TEAE: White blood cells urine positive, maximal CTCAE grade G2 (Total (N = 50)): 0 n (%) | TEAE: White blood cells urine positive, maximal CTCAE grade G3 (Total (N = 50)): 0 n (%) | TEAE: White blood cells urine positive, maximal CTCAE grade G4 (Total (N = 50)): 0 n (%) | TEAE: White blood cells urine positive, maximal CTCAE grade G5 (Total (N = 50)): 0 n (%) | TRAE: ALP increased (Total (N = 50)): 5 (10.0%) n (%) | TRAE: ALT increased (Total (N = 50)): 6 (12.0%) n (%) | TRAE: AST increased (Total (N = 50)): 9 (18.0%) n (%) | TRAE: Anemia (Total (N = 50)): 7 (14.0%) n (%) | TRAE: GGT increased (Total (N = 50)): 5 (10.0%) n (%) | TRAE: LDH increased (Total (N = 50)): 5 (10.0%) n (%) | TRAE: Lymphocyte count decreased (Total (N = 50)): 6 (12.0%) n (%) | TRAE: Protein urine present (Total (N = 50)): 6 (12.0%) n (%) | TRAE: Proteinuria (Total (N = 50)): 7 (14.0%) n (%) | Treatment-emergent Proteinuria (grouped PTs), G1 (Total (N = 50)): 12 (24.0) n (%) | Treatment-emergent Proteinuria (grouped PTs), G2 (Total (N = 50)): 8 (16.0) n (%) | Treatment-emergent Proteinuria (grouped PTs), G3 (Total (N = 50)): 1 (2.0) n (%) | Treatment-emergent Proteinuria (grouped PTs: proteinuria and urine protein present), any grade (Total (N = 50)): 21 (42.0) n (%) | TRAE ALP increased, all G (all 50 patients): 10.0% | TRAE ALP increased, ≥G3 (all 50 patients): 0% | TRAE ALT increased, all G (all 50 patients): 12% | TRAE ALT increased, ≥G3 (all 50 patients): 0% | TRAE AST increased, all G (all 50 patients): 18% | TRAE AST increased, ≥G3 (all 50 patients): 0% | TRAE GGT increased, all G (all 50 patients): 10.0% | TRAE GGT increased, ≥G3 (all 50 patients): 0% | TRAE LDH increased, all G (all 50 patients): 10.0% | TRAE LDH increased, ≥G3 (all 50 patients): 0% | TRAE anemia, all G (all 50 patients): 14% | TRAE anemia, ≥G3 (all 50 patients): 2% | TRAE lymphocyte count decreased, all G (all 50 patients): 12.0% | TRAE lymphocyte count decreased, ≥G3 (all 50 patients): 2.0% | TRAE proteinuria, all G (all 50 patients): 14% | TRAE proteinuria, ≥G3 (all 50 patients): 2% | TRAE urine protein present, all G (all 50 patients): 12.0% | TRAE urine protein present, ≥G3 (all 50 patients): 0% | bleeding events (all 50 patients): No significant cardiotoxicity or bleeding was observed; also recorded: No bleeding events occurred | cardiotoxicity (all 50 patients): No significant cardiotoxicity or bleeding was observed; also recorded: No significant cardiotoxicity was observed; also recorded: No significant cardiovascular toxicities were observed | changes in serum creatinine levels or estimated glomerular filtration rate (all 50 patients): no clinically significant changes | grade 4 or 5 TRAEs (all 50 patients): No grade 4 or 5 TRAEs were observed | patients with grade 3 proteinuria (all 50 patients): one | patients with at least one TEAE (all 50 patients, 5-85 mg): ~96.0% | patients with at least one TRAE (all 50 patients, 5-85 mg): 86.0% | patients with at least one ≥ G3 TEAE (all 50 patients, 5-85 mg): 26.0% | patients with ≥ G3 TRAEs (all 50 patients, 5-85 mg): 6% | deaths (all 50 patients, all judged unrelated to GFH018): Six | patients with at least one serious AE (SAE) [2]: nine | treatment discontinuation due to AEs (bilirubin increased, peripheral edema) [2]: two | severity of AESIs (all 50 patients, without clinical symptoms or signs): mild (Grade 1) | maximum tolerated dose (MTD) (eight dose levels up to 85 mg): not reached

From publication PMC11007962, “First-in-human study of GFH018, a small molecule inhibitor of transforming growth factor-β receptor I inhibitor, in patients with advanced solid tumors” (BMC Cancer, 2024)
